Data as given in patent publication US11160796B2, “Anti-androgens for the treatment of non-metastatic castration-resistant prostate cancer” (priority 2017, dated 2021).
Where two headings read alike, the source gives them in different places. Blank lines part the entries; values can stand above or below the compound they belong to.

How the values were obtained:
[1] = human, in vivo, po, 240 mg
androgen receptor (AR) = androgen receptor (AR) (Homo sapiens, UniProt P10275); details: cited from earlier work
[2] = Preclinical pharmacokinetic profile; type: in vivo; details: relative to apalutamide
[3] = test system: organic cation transporter 2 (OCT2), organic anion transporter 3 (OAT3) and multidrug and toxin extrusions (MATEs); assay: In vitro transporter inhibition: OCT2, OAT3, MATEs; type: in vitro ADME
[4] = human, in vivo
plasma proteins = assay: Plasma protein binding; details: no concentration dependency
human CYP2B6 and CYP3A4 = assay: CYP induction in vitro (hepatocytes)
CYP1A2 and CYP2D6 = assay: In vitro effect on CYP1A2 and CYP2D6; details: therapeutically relevant concentrations
[5] = target: T1, organic anion transporter 1 (OAT1) (Homo sapiens, UniProt Q4U2R8); assay: In vitro transporter inhibition: OAT1
T1 sequence (Q4U2R8 1-563): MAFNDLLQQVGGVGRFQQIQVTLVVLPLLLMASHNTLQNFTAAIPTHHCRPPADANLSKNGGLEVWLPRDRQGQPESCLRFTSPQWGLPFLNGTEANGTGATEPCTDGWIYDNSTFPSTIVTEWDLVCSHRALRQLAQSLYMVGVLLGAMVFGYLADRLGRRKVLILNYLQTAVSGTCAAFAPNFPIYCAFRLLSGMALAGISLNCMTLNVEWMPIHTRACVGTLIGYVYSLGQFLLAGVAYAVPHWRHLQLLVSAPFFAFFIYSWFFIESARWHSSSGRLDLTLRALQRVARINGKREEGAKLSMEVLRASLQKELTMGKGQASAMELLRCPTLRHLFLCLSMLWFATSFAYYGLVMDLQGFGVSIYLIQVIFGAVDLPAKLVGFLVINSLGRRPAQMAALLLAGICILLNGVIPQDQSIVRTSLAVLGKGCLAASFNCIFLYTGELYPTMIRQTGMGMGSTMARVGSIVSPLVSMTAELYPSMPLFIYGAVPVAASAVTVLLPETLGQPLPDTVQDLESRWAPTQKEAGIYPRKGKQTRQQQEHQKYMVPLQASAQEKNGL

CYP2B6 and CYP2C8 = assay: In vitro CYP inhibition: CYP2B6 and CYP2C8
P-gp = P-gp (Homo sapiens, UniProt P08183); assay: In vitro transporter substrate assessment: P-gp
[6] = test system: CYP2C9, CYP2C19, and CYP3A4; assay: In vitro CYP inhibition: CYP2C9, CYP2C19, CYP3A4
[7] = test system: BCRP, OATP1B1, and OATP1B3; assay: In vitro transporter substrate assessment: BCRP, OATP1B1, OATP1B3
[8] = Single oral administration of 14C-labeled apalutamide 240 mg (metabolite profile, excretion)
[9] = listed as N-desmethyl metabolite

Sequence of P-gp (P08183 whole entry): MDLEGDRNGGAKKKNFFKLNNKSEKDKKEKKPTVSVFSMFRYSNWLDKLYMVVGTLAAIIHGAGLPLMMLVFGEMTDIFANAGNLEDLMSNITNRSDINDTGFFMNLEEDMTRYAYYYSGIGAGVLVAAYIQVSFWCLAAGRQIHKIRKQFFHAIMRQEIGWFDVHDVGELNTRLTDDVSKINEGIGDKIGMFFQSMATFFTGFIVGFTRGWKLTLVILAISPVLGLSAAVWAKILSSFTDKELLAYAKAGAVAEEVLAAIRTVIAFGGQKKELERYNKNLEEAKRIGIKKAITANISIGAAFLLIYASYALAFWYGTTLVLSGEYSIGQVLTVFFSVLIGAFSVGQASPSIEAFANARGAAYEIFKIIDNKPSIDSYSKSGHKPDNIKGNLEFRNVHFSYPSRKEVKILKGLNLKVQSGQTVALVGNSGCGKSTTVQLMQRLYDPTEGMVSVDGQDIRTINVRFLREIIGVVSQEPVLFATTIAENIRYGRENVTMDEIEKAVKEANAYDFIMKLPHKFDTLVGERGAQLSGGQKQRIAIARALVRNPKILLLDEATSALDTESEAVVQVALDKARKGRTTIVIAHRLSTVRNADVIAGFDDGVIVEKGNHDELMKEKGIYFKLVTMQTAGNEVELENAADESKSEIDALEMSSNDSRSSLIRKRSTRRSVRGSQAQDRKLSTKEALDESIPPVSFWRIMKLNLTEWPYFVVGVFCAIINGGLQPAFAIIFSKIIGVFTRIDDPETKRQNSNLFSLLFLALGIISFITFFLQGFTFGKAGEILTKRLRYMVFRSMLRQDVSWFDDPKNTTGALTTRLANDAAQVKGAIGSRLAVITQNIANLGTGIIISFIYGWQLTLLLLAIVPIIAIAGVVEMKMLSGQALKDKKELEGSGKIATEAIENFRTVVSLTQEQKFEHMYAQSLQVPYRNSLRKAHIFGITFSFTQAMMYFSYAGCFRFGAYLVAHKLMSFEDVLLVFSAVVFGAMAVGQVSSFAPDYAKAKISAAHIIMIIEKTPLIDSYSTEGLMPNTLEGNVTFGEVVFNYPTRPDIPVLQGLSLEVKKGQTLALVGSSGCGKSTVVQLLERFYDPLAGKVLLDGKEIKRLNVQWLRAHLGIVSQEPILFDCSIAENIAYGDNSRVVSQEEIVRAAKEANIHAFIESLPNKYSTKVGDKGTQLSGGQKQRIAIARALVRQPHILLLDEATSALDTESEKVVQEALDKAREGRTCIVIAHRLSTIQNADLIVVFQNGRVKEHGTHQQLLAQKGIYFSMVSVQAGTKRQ
Sequence of androgen receptor (AR) (P10275 whole entry): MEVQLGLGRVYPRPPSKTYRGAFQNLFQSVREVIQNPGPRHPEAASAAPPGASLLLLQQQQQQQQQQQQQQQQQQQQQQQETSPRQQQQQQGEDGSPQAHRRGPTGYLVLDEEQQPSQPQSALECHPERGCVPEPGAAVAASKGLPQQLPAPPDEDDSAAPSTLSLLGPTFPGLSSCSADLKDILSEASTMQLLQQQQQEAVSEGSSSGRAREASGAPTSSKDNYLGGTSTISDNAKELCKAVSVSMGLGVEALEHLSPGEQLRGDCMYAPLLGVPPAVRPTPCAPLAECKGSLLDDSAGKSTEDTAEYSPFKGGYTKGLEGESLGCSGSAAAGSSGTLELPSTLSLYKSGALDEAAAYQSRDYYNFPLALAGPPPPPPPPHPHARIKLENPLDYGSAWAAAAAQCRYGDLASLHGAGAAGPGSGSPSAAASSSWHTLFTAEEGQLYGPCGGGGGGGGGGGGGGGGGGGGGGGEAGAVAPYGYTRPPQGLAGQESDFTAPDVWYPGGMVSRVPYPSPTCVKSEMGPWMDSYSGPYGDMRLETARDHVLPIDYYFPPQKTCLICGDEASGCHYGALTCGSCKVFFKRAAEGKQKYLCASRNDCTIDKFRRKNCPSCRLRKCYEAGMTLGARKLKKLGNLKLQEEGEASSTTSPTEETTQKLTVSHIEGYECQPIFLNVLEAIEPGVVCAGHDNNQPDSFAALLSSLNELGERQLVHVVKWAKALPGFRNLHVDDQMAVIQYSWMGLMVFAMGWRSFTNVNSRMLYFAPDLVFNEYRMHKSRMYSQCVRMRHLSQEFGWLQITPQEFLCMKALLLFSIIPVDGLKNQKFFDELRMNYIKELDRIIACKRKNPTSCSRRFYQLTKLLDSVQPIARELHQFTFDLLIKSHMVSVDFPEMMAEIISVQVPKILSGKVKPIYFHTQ

share of the total 14C-AUC in plasma [1]: 3%
Compound: N#Cc1ncc(N2C(=O)C3(CCC3)N(c3ccc(C(=O)O)c(F)c3)C2=S)cc1C(F)(F)F [inactive carboxylic acid metabolite]

Compound: CC(O)c1cc(C(=O)N[C@@H](C)Cn2ccc(-c3ccc(C#N)c(Cl)c3)n2)[nH]n1 (some centres unmarked) [Darolutamide]
binding affinity to AR (androgen receptor (AR)): high affinity

Compound: N-desmethyl apalutamide
elimination half-life [2]: longer elimination half-life than apalutamide
inhibition of OCT2, OAT3 and MATEs [3]: inhibit
inhibition of OCT2, OAT3 and MATEs [3, 9]: cannot be excluded
AUC at steady-state, mean [4]: 124 µg·h/mL
Cmax at steady-state, mean [4]: 5900 ng/mL
differences in pharmacokinetics in specific populations [4]: No clinically significant differences
AUC at steady-state, mean ([4]; 240 mg): 124 µg·h/mL
Cmax at steady-state, mean ([4]; 240 mg): 5900 ng/mL
bound to plasma proteins (plasma proteins): 95%
induction of human CYP2B6 and CYP3A4 in hepatocytes (human CYP2B6 and CYP3A4; concentrations up to 30 μM): inducers
CYP3A4 and CYP2B6 induction (human CYP2B6 and CYP3A4; in vitro studies): moderate to strong CYP3A4 and CYP2B6 inducers
effect on CYP1A2 and CYP2D6 (CYP1A2 and CYP2D6): do not affect
inhibition of OAT1 [5]: do not inhibit
inhibition of OAT1 [5, 9]: No in vitro inhibition
inhibition of CYP2B6 and CYP2C8 (CYP2B6 and CYP2C8): moderate inhibitors
substrate for P-gp (P-gp): substrates for P-gp
inhibition of CYP2C9, CYP2C19, and CYP3A4 [6]: weak inhibitors
substrate for BCRP, OATP1B1, and OATP1B3 [7]: not BCRP, OATP1B1, and OATP1B3
share of the total 14C-AUC in plasma ([8]; single oral 240 mg): 44%
% of dose in feces as this compound ([8]; up to 70 days): 2%
% of dose in urine as this compound ([8]; up to 70 days): 2.7%
